Measurements taken from the NIST ThermoML archive (doi:10.1021/je900437b).

Assay: xn = mol fraction of the nth substance listed
Settings: 101 kPa, Liquid; for mass density: Vibrating tube method; for speed of sound: Sing-around technique in a fixed-path interferometer

CN(CCO)CCO [N-methyldiethanolamine] + NCCO
Settings	mass density, 308.15 K [kg/m3]	mass density, 313.15 K [kg/m3]	mass density, 318.15 K [kg/m3]	mass density, 323.15 K [kg/m3]	speed of sound, 313.15 K [m/s]	speed of sound, 318.15 K [m/s]	speed of sound, 323.15 K [m/s]
x2 = 0	1030.43	1026.48	1022.53	1018.58	1524.2	1508.8	1493.4
x2 = 0.1789	1028.36	1024.36	1020.38	1016.38	1543	1527.7	1512.4
x2 = 0.3286	1026.41	1022.38	1018.35	1014.32	1561.3	1546	1530.6
x2 = 0.456	1024.37	1020.33	1016.27	1012.2	1578.7	1563.2	1547.7
x2 = 0.5691	1022.01	1017.96	1013.89	1009.81	1594.7	1579.2	1563.6
x2 = 0.6614	1019.55	1015.47	1011.39	1007.31	1609.7	1594.1	1578.4
x2 = 0.7451	1016.86	1012.76	1008.66	1004.57	1623.8	1608	1592.2
x2 = 0.8197	1014.03	1009.92	1005.81	1001.7	1636	1620.2	1604.3
x2 = 0.854	1012.55	1008.44	1004.31	1000.21	1642.5	1626.6	1610.7
x2 = 0.8865	1011.03	1006.91	1002.79	998.693	1648.8	1632.8	1616.8
x2 = 0.9461	1007.83	1003.74	999.607	995.464	1659.5	1643.3	1627.2
x2 = 0.9738	1005.91	1001.87	997.788	993.693	1665.2	1649	1632.8
